# Assay results published in PubChem BioAssay (NCI).
#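 Tested at 5 concentrations; 48 h exposure; 96-well plates; endpoints linearly interpolated, else capped at highest concentration. Here, GI50 denotes the concentration required for 50% inhibition of growth. TGI: concentration producing complete growth inhibition.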
# Key:
# Assay in all cases: NCI-60 cell line screen, 48 h
# SNB-75 CNS = tested on: SNB-75 CNS
# HCT-15 colon = tested on: HCT-15 colon
# OVCAR-5 ovarian = tested on: OVCAR-5 ovarian
# M14 melanoma = tested on: M14 melanoma
# HCC-2998 colon = tested on: HCC-2998 colon
# NCI-H23 lung = tested on: NCI-H23 lung
# ACHN renal = tested on: ACHN renal
# K-562 leukemia = tested on: K-562 leukemia
# SF-295 CNS = tested on: SF-295 CNS
# NCI-H460 lung = tested on: NCI-H460 lung
SMILES,GI50 (SNB-75 CNS) [µM],TGI (SNB-75 CNS) [µM],GI50 (HCT-15 colon) [µM],TGI (HCT-15 colon) [µM],GI50 (OVCAR-5 ovarian) [µM],TGI (OVCAR-5 ovarian) [µM],GI50 (M14 melanoma) [µM],TGI (M14 melanoma) [µM],GI50 (HCC-2998 colon) [µM],TGI (HCC-2998 colon) [µM],GI50 (NCI-H23 lung) [µM],TGI (NCI-H23 lung) [µM],GI50 (ACHN renal) [µM],TGI (ACHN renal) [µM],TGI (K-562 leukemia) [µM],TGI (SF-295 CNS) [µM],TGI (NCI-H460 lung) [µM],GI50 (SF-295 CNS) [µM],GI50 (K-562 leukemia) [µM],GI50 (NCI-H460 lung) [µM]
COc1cc(C2CC(=O)c3c(C)nn(-c4nc5ccccc5[nH]4)c3C2)cc(OC)c1OC (stereo not drawn),1.72,3.46,> 100,> 100,> 100,> 100,> 100,> 100,> 100,> 100,> 100,> 100,,,,,,,,
Cc1cn(C2CC(N=[N+]=[N-])C(CO)O2)c(=O)[nH]c1=O (stereo not drawn),,,> 1000,> 1000,> 1000,> 1000,> 1000,> 1000,> 1000,> 1000,> 1000,> 1000,> 1000,> 1000,> 1000,,,,,
O=C(O)c1ccccc1-c1ccccc1C(=O)Nc1ccc2c(c1)Cc1ccccc1-2,,> 100,,56,,49.2,,41.6,,33.4,,36.6,,> 100,,> 100,38.1,,,
c1cc2ccc3cc2cc1CNCCOCCNCc1ccc2ccc(cc2c1)CNCCOCCNC3,,,> 100,> 100,> 100,> 100,> 100,> 100,> 100,> 100,> 100,> 100,> 100,> 100,> 100,> 100,> 100,> 100,> 100,> 100
CCOC(=O)C/C(N)=C(\C#N)C(=O)OCC,,> 100,,> 100,,> 100,,> 100,,,,> 100,,> 100,> 100,> 100,> 100,,,
CC1=C(C(=O)Nc2cccc(C(F)(F)F)c2)C(c2ccccc2F)C(C(=O)Nc2cccc(C(F)(F)F)c2)=C(C)N1,,79.6,,,,24.5,,15.7,,7.67,,17,,19,18.6,20.3,21.8,,,
O=C(O)CN(CC(=O)O)c1ccccc1,,> 100,,> 100,,> 100,,> 100,,,,> 100,,> 100,> 100,> 100,> 100,,,
CN(C(=O)C12C3C4C1C1C2C3C41C(=O)N(C)C(C)(C)C)C(C)(C)C (stereo not drawn),,> 50,,> 50,,,,> 50,,> 50,,,,> 50,> 50,> 50,,,,
O=[N+]([O-])c1ccc(N/N=C/c2ccccc2O)nc1,10.6,> 100,0.639,> 100,7.33,> 100,1.66,> 100,1.46,> 100,2.45,> 100,0.594,> 100,,> 100,> 100,2.92,,1.02
COC(=O)CSc1n[nH]c(-c2ccccc2)n1,,> 100,,> 100,,> 100,,> 100,,,,> 100,,> 100,> 100,> 100,> 100,,,
